In assay [1] the test system is IL-2 release by PMA+Iono-stimulated Jurkat cells. Description: IL-2 release assay (ELISA). It is filed as cell-based. To be noted: Homo sapiens, PMA+Ionomycine-stimulated Jurkat cells, 24 hours, read-out: % Inhibition of IL2 Production @3 uM. The procedure: Jurkat cells, a human T cell leukemia cell line (American Type Culture Collection # TIB 152) were cultured in RPMI 1640 medium (Gibco, BRL) supplemented with 10% of […] FCS, Glutamine and Penstrep. The cell suspension in the medium is diluted to give 2.10^6 cells/mL. The cells were plated (2.10^5 cells/well) on a 96-well plate containing different concentration of test compound (final concentration of compounds, 10, 3, 1, […], 0.1 μM). This mixture is incubated 30 minutes at 37° C. in a humidified CO2 atmosphere. Cells were then treated with 10 ul PMA+Ionomycine (0.1 μM and 1 μM final concentration) in all wells except negative control. In wells without compounds, 10 μl of RPMI 2% DMSO (=0.1% final) is added. Cells are incubated 24 hours at 37° C. and then the supernatant harvested (freeze at −20° C. if not used the same day) prior to performing IL-2 ELISA test on the supernatant.
IL-2 release into the medium by PMA+Iono-stimulated Jurkat cells, in presence or absence of test compounds is assayed by ELISA. Following the procedure described below
Transfer 100 μl capture antibody diluted in PBS at 5 μg/mL into a 96 well ELISA plate and incubate overnight at room temperature.
Aspirate each well and wash 3 times with Wash buffer. After the last wash, damp the plate.
1. Saturate with 200 μl PBS-10% FCS. Incubate 1 hour at room temperature.
2. Repeat the wash step 2.
• 1. Add 100 μl of sample or standard ([…]) and incubate 2 hours at room temperature. • 2. Wash 3 times. • 3. Add 100 μl of biotinylated anti-human IL-2 at 12.5 ng/mL. Incubate 2 hours at room temperature. • 4. Wash 3 times. • 5. Add 100 μl streptavidin-HRP (Zymed #43-4323) at 1:10′000. Incubate 30 minutes at room temperature. • 6. Wash 3 times • 7. Add 100 μl substrate solution (citric acid/Na2HPO4 (1:1)+H2O2 1:2000+OPD). Incubate 20-30 minutes at room temperature. • 8. Add 50 μl of stop solution to each well. • 9. Determine optical density using a microliter plate reader set to 450 nm with correction at 570 nm.

The next assay concerns the target JNK3 (Homo sapiens, UniProt P53779). Description: JNK3 in vitro assay (SPA, GST-c-Jun phosphorylation). To be noted: amount necessary to achieve 50% inhibition, GST-c-Jun substrate. It is filed as biochemical. The procedure:
(§1) JNK 2 and 3 in vitro assays: JNK3 and/or 2 assays are performed in 96 well MTT plates, by incubation of 0.5 μg of recombinant pre-activated GST-JNK or GST-JNK2 with 1 μg of recombinant, biotinylated GST-c-Jun and 2 μM ^33γ-ATP (2 nCi/μl), in the to presence or absence of sulfonamide inhibitors if formula I and in a reaction volume of 50 μl containing 50 mM Tris-HCl, pH 8.0; 10 mM MgCl2; 1 mM Dithiothreitol, and 100 μM NaVO4. The incubation is performed for 120 min. at R.T and stopped upon addition of 200 μl of a solution containing 250 μg of Streptavidine-coated SPA beads (Amersham, Inc.)^•, 5 mM EDTA, 0.1% Triton X-100 and 50 μM ATP, in phosphate saline buffer. After incubation for 60 minutes at RT, beads are sedimented by centrifugation at 1500×g for 5 minutes, resuspended in 200 μl of PBS containing 5 mM EDTA, 0.1% Triton X-100 and 50 μM ATP and the radioactivity measured in a scintillation β counter, following sedimentation of the beads as described above. By substituting GST-c Jun for biotinylated GST-1ATF2 or myelin basic protein, this assay can be used to measure inhibition of preactivated p38 and ERK MAP Kinases, respectively.
(§2) The values indicated in respect of JNK2 and 3, p38 and ERK2 refer to the IC50 (μM), i.e. the amount necessary to achieve 50% inhibition of said target (e.g. JNK2). From the above table it could be derived that said test compounds according to formula I do have a significant effect both on JNK2 and 3, but virtually no effect onto p38 and ERK2, thus delivering a quite selective inhibitory effect.

For a further assay, the target named is ERK2 (Homo sapiens, UniProt P28482). Put plainly: ERK2 in vitro kinase assay (SPA, myelin basic protein substrate). In kind it is biochemical. The settings on record: amount necessary to achieve 50% inhibition. The procedure: as §1, §2
ERK2, sequence (P28482 whole entry, species assumed): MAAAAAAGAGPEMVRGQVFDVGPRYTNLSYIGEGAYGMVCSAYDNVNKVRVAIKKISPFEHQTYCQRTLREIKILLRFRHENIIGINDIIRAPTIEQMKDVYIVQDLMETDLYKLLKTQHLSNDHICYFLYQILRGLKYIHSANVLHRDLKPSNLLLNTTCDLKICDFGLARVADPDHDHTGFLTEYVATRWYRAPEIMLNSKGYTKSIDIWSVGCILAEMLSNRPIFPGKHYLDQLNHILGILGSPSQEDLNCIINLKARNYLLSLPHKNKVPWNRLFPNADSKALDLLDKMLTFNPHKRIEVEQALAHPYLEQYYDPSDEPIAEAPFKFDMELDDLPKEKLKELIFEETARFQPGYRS
Another assay has as its system Hlr c-Jun HeLa cells. Put plainly: C-Jun reporter assay (Dual-Luciferase). In kind it is cell-based. To be noted: Homo sapiens, Hlr c-Jun HeLa cells transfected with pMEKK1. The procedure: Hlr c-Jun HeLa cells are cultured in DMEM High Glc supplemented with 10% FCS (Sigma), 2 mM Glutamine (Gibco), P/S, Hygromycin b 100 μg/mL and G418 250 μg/mL
The cell suspension are diluted with medium to give about 3.5×10^6 cells/mL and 1 mL of cell suspension are put onto 2 10 cm culture dishes containing 9 mL of culture medium.
• Control: 0.2 μg pTK Renilla, 5.8 μg pBluescript KS, 500 μl OPTIMEM (GIBCO), 18 μl Fugene 6 • Induced: 0.1 μg pMEKK1, 0.2 μg pTK Renilla, 5.7 μg pBluescript KS, 500 μl OPTIMEM (GIBCO), 18 μl Fugene 6 30′ RT
The transfection mixture is added to the plated cells. The plates are incubated over night at 37° C. in a humidified atmosphere of 5% CO2 in air
A 96 wells plate containing 100 μl of culture medium per well is prepared
Negative control (vehicle): 2 μl of DMSO is added to the 100 μl (in triplicate).
Compound: 2 μl of Hit compound stock dilution are added to the 100 μl (in triplicate).
The transfected cells are trypsinised and ressuspend in 12 mL of culture medium.
100 μl of the dilution are added to each of the 96 wells plate.
The plate is incubated over night at 37° C. in a humidified atmosphere of 5% CO2 in air
Dual-Luciferase™ Reporter Assay System (Promega)
The medium is removed from the plate and the cells washed two times with 100 μl PBS Completely remove the rinse solution before applying PLB reagent. Dispense into each culture well […] of 1×PLB. Place the culture plates on a rocking platform or orbital shaker with gentle
rocking/shaking to ensure complete and even coverage of the cell monolayer with 1×PLB. Rock the culture plates at room temperature for 15 minutes. Transfer 20 μl of the lysate into a white opaque 96 wells plate. Read in a luminometer.
• Inject 50 μl of Luciferase Assay Reagent II wait 5″, read 10″ • Inject 50 μl of Stop & Glo® Reagent wait 5″, read 10″ Check RLU Luciferase/RLU Renilla *1000

The target of the next assay is p38 (Homo sapiens, UniProt Q16539). Description: p38 in vitro kinase assay (SPA, GST-ATF2 substrate). It is filed as biochemical. To be noted: amount necessary to achieve 50% inhibition. As for the experimental part:
as §1, §2

For another assay, the target named is JNK2 (Homo sapiens, UniProt P45984). Description: JNK2 in vitro assay (SPA, GST-c-Jun phosphorylation). In kind it is biochemical. The settings on record: amount necessary to achieve 50% inhibition, GST-c-Jun substrate. As for the experimental part:
as §1, §2

p38, sequence (Q16539 whole entry): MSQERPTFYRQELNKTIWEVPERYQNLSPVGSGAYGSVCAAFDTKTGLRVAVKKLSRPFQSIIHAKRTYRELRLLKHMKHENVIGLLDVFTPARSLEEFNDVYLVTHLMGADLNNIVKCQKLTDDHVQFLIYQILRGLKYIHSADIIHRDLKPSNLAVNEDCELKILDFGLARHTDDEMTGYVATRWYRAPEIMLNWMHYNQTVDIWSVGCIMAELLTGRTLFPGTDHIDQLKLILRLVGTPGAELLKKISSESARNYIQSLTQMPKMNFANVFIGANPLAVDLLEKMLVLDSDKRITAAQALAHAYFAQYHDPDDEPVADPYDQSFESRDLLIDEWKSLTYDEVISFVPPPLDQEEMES
JNK2, sequence (P45984 whole entry, species assumed): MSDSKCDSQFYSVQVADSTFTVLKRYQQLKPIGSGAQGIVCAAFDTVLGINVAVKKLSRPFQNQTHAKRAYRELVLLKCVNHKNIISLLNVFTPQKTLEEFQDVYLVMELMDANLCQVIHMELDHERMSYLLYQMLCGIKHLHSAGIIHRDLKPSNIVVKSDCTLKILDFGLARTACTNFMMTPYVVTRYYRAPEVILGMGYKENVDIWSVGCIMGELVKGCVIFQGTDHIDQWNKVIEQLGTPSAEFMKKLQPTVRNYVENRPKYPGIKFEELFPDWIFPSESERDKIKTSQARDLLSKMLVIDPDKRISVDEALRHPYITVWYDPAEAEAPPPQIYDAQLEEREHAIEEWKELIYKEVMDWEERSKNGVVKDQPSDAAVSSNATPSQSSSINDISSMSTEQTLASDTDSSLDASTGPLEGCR
JNK3, sequence (P53779 whole entry, species assumed): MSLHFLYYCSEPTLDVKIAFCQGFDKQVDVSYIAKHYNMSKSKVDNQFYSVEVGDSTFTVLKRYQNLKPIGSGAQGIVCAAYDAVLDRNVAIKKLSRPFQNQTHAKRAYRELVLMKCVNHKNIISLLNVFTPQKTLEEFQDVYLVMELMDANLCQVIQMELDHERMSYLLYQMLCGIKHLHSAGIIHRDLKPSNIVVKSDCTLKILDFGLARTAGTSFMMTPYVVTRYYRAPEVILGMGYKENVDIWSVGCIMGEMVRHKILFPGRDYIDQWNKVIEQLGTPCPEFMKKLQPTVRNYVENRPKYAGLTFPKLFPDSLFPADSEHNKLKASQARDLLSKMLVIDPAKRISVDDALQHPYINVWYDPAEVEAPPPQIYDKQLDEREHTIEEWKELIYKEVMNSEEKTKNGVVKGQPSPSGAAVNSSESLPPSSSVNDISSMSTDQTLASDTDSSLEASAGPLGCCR

For the compound `O=C(NCc1ccc(S(=O)(=O)N2CCC(C(=O)c3ccc(F)cc3F)CC2)s1)c1ccc(Cl)cc1` [Example 37, 4-chloro-N-[(5-{[4-(2,4-difluorobenzoyl)piperidin-1-yl]sulfonyl}thien-2-yl)methyl]benzamide], in assay [1], the inhibition at 3 µM was above 30%. Further, the IC50 at JNK3 is 680 nM; against ERK2, above 30 µM; against p38, above 30 µM; against JNK2, 1190 nM. In the assay with Hlr c-Jun HeLa cells, this compound registered an inhibition at 10 µM above 30%.

In the case of `O=C(NCc1ccc(S(=O)(=O)N2CCCN(C(=O)Cc3ccccc3)CC2)s1)c1ccc(Cl)cc1` [Example 84, 4-chloro-N-[(5-{[4-(phenylacetyl)-1,4-diazepan-1-yl]sulfonyl}thien-2-yl)methyl]benzamide], the inhibition at 3 µM in assay [1] is above 30%. For the same compound, the IC50 against JNK3 was 860 nM; at ERK2, above 30 µM; at p38 it was above 30 µM; against JNK2 it was 1300 nM. The compound further displayed an inhibition at 10 µM with Hlr c-Jun HeLa cells above 30%.

Consider `O=C(NCc1ccc(S(=O)(=O)N2CCC(Nc3ccccc3)CC2)s1)c1ccc(Cl)cc1` [Example 86, N-({5-[(4-anilinopiperidin-1-yl)sulfonyl]thien-2-yl}methyl)-4-chlorobenzamide], for which, in assay [1], the inhibition at 3 µM is above 30%. Moreover, the IC50 on JNK3 is 800 nM; against ERK2 it was above 30 µM; against p38, above 30 µM; on JNK2 it was 1050 nM. The same compound yielded an inhibition at 10 µM in the assay on Hlr c-Jun HeLa cells above 30%.

Consider `O=C(NCc1ccc(S(=O)(=O)N2CCC(n3nnc4ccccc43)CC2)s1)c1ccc(Cl)cc1` [Example 91, N-[(5-{[4-(1H-1,2,3-benzotriazol-1-yl)piperidin-1-yl]sulfonyl}thien-2-yl)methyl]-4-chlorobenzamide], for which, in assay [1], the inhibition at 3 µM is above 30%. In addition, the IC50 on JNK3 is 150 nM; at ERK2 it was above 30 µM; against p38, above 30 µM; against JNK2 it was 640 nM. The inhibition at 10 µM in the assay on Hlr c-Jun HeLa cells is above 30%.

In the case of `O=C(NCc1ccc(S(=O)(=O)N2CCC(n3cnc4ccccc43)CC2)s1)c1ccc(Cl)cc1` [Example 109, N-[(5-{[4-(1H-benzimidazol-1-yl)piperidin-1-yl]sulfonyl}thien-2-yl)methyl]-4-chlorobenzamide], the inhibition at 3 µM in assay [1] was above 30%. Also, the IC50 against JNK3 was 230 nM; against ERK2, above 30 µM; at p38, above 30 µM; against JNK2, 590 nM. This compound also displayed an inhibition at 10 µM in the assay with Hlr c-Jun HeLa cells above 30%.

Consider `O=C(NCc1ccc(S(=O)(=O)N2CCC(Nc3ccc(Cl)cc3)CC2)s1)c1ccc(Cl)cc1` [Example 120, 4-chloro-N-[(5-{[4-(4-chloroanilino)piperidin-1-yl]sulfonyl}thien-2-yl)methyl]benzamide], for which, in assay [1], the inhibition at 3 µM was above 30%. In addition, the IC50 at JNK3 was 400 nM; against ERK2 it was above 30 µM; at p38, above 30 µM; at JNK2, 560 nM. In the assay on Hlr c-Jun HeLa cells, the inhibition at 10 µM is above 30%.

`O=C(NCc1ccc(S(=O)(=O)N2CCC(Nc3cccc(S(=O)(=O)CCO)c3)CC2)s1)c1ccc(Cl)cc1` [Example 131, 4-chloro-N-({5-[(4-{3-[(2-hydroxyethyl)sulfonyl]-anilino}piperidin-1-yl)sulfonyl]thien-2-yl}methyl)-benzamide]: in assay [1], the inhibition at 3 µM is above 30%. Also, the IC50 at JNK3 is 710 nM; against ERK2, above 30 µM; against p38, above 30 µM; against JNK2, 2230 nM. The inhibition at 10 µM in the assay with Hlr c-Jun HeLa cells is above 30%.

For `NS(=O)(=O)c1cccc(NC2CCN(S(=O)(=O)c3ccc(CNC(=O)c4ccc(Cl)cc4)s3)CC2)c1` [Example 155, N-{[5-({4-[3-(aminosulfonyl)anilino]piperidin-1-yl}sulfonyl)thien-2-yl]methyl}-4-chlorobenzamide], the inhibition at 3 µM in assay [1] is above 30%. Besides, the IC50 was 530 nM against JNK3, above 30 µM at ERK2, above 30 µM at p38 and 500 nM on JNK2. This compound registered an inhibition at 10 µM in the assay on Hlr c-Jun HeLa cells above 30%.

As to `O=C(NCc1ccc(S(=O)(=O)N2CCN(C(=O)c3cccc4ccccc34)CC2)s1)c1ccc(Cl)cc1` [Example 168, 4-chloro-N-[(5-{[4-(1-naphthoyl)piperazin-1-yl]sulfonyl}thien-2-yl)methyl]benzamide], the inhibition at 3 µM in assay [1] was above 30%. The IC50 against JNK3 is 890 nM; against ERK2, above 30 µM; at p38, above 30 µM; at JNK2, 1200 nM. This compound registered an inhibition at 10 µM in the assay with Hlr c-Jun HeLa cells above 30%.

`COc1cccc(NC2CCN(S(=O)(=O)c3ccc(CNC(=O)c4ccc([N+](=O)[O-])cc4)s3)CC2)c1` [Example 204, 4-nitro-N-[(5-{[4-(3-methoxyanilino)piperidin-1-yl]sulfonyl}thien-2-yl)methyl]-benzamide]: the inhibition at 3 µM in assay [1] was above 30%. In addition, the IC50 is 170 nM on JNK3, above 30 µM against ERK2, above 30 µM on p38 and 220 nM at JNK2. Also, the inhibition at 10 µM in the assay on Hlr c-Jun HeLa cells was above 30%.

On to `COC(=O)c1cccc(NC2CCN(S(=O)(=O)c3ccc(CNC(=O)c4ccc([N+](=O)[O-])cc4)s3)CC2)c1` [Example 211, methyl 3-{[1-({5-[({4-nitrobenzoyl}amino)methyl]thien-2-yl}sulfonyl)piperidin-4-yl]amino}benzoate], for which the inhibition at 3 µM in assay [1] was above 30%. Moreover, the IC50 against JNK3 was 270 nM; at ERK2, above 30 µM; at p38 it was above 30 µM; against JNK2 it was 390 nM. In the assay on Hlr c-Jun HeLa cells, this compound gave an inhibition at 10 µM above 30%.

The values above are taken from US8012995B1, “Pharmaceutically active sulfonamide derivatives” (Merck Serono SA, priority 1999, dated 2011).
